pIC50: −log10 of the molar value. Where a name gives a salt, the structure may show the parent alone.
Legend:
aldose reductase = target: T1, aldose reductase (Oryctolagus cuniculus, UniProt P15122); experiment: Aldose reductase inhibitory activity; type: biochemical; conditions: aldose reductase from lens of male rabbit
T1 construct: Aldose reductase was obtained from lens of male rabbit; from tissue; host or cells: lens of male rabbit (weighing 2.5-3.5 kg)
Experimental: Aldose reductase was obtained from lens of male rabbit (weighing 2.5-3.5 kg) in the same manner as described in J. Biol. Chem., Vol. 240, 877-882 (1965). The inhibitory activity of the test compounds against the aldose reductase was measured in the same manner as described in Biochim. Biophys. Acta., Vol. 128, 474-482 (1966).

ddY male mice = experiment: Acute toxicity and observation of symptoms; type: in vivo; conditions: for abnormal symptoms (dysbasia, areflexia, astasia, blepharoptosis, dyspnea, skin flush, lacrimation, etc.): mouse, in vivo, po; for mortality (acute toxicity): oral, suspension in 0.5% carboxymethyl cellulose, observed for 14 days, dose not given

Compound	pIC50 (aldose reductase)	abnormal symptoms (dysbasia, areflexia, astasia, blepharoptosis, dyspnea, skin flush, lacrimation, etc.) (ddY male mice)	mortality (acute toxicity) (ddY male mice)
CN1C(=O)Nc2ccc(Cl)cc2C12NC(=O)NC2=O (stereo not shown) [Test Compound 1, 6-Chloro-3-methyl-spiro[1,2,3,4-tetrahydroquinazoline-4,4'-imidazolidine]-2,2',5'-trione]	7.25	there was not observed any abnormal symptom	no mouse died
CN1C(=O)Nc2ccc(Cl)cc2C12NC(=O)NC2=O (stereo not shown) [Test Compound 3, 6-Chloro-3-methyl-spiro[1,2,3,4-tetrahydroquinazoline-4,4'-imidazolidine]-2,2',5'-trione-1'-sodium salt]	7.54		
CN1C(=O)Nc2ccc(Cl)cc2C12NC(=O)NC2=O (stereo not drawn) [Test Compound 2, d-6-Chloro-3-methyl-spiro[1,2,3,4-tetrahydroquinazoline-4,4'-imidazolidine]-2,2',5'-trione]	7.66	there was not observed any abnormal symptom	no mouse died
CN1C(=O)N(C)C2(C1=O)c1ccccc1NC(=O)N2C (stereo not shown) [Test Compound 12, 3,1',3'-Trimethyl-spiro[1,2,3,4-tetrahydroquinazoline-4,4'-imidazolidine]-2,2',5'-trione, reference compound]	< 4.30		

Continued, in another order:

pIC50 (aldose reductase)	Compound	abnormal symptoms (dysbasia, areflexia, astasia, blepharoptosis, dyspnea, skin flush, lacrimation, etc.) (ddY male mice)	mortality (acute toxicity) (ddY male mice)
5.00	CN1C(=O)NC2(C1=O)c1ccccc1NC(=O)N2C (stereo not shown) [Test Compound 11, 3,1'-Dimethyl-spiro[1,2,3,4-tetrahydroquinazoline-4,4'-imidazolidine]-2,2',5'-trione, reference compound]		
7.52	Cc1cc2c(cc1Cl)C1(NC(=O)NC1=O)N(C)C(=O)N2 (stereo not shown) [Test Compound 5, 6-Chloro-3,7-dimethyl-spiro[1,2,3,4-tetrahydroquinazoline-4,4'-imidazolidine]-2,2',5'-trione]		
6.57	CC(C)CN1C(=O)N(C)C2(NC(=O)NC2=O)c2cc(Cl)ccc21 (stereo not shown) [Test Compound 10, 1-Isobutyl-6-chloro-3-methyl-spiro[1,2,3,4-tetrahydroquinazoline-4,4'-imidazolidine]-2,2',5'-trione]		
7.13	CN1C(=O)Nc2cc(Cl)c(Cl)cc2C12NC(=O)NC2=O (stereo not shown) [Test Compound 7, 6,7-Dichloro-3-methyl-spiro[1,2,3,4-tetrahydroquinazoline-4,4'-imidazolidine]-2,2',5'-trione]		
7.28	CN1C(=O)Nc2ccc(Br)cc2C12NC(=O)NC2=O (stereo not shown) [Test Compound 6, 6-Bromo-3-methyl-spiro[1,2,3,4-tetrahydroquinazoline-4,4'-imidazolidine]-2,2',5'-trione]		

Source: US4762839A, “Quinazolinone copmpounds useful for the prophyloxis and treatment of diabetic complications” (priority 1985, dated 1988)
